Experimental data taken from patent publication US20190134148A1, “COMBINATION THERAPY” (BIG DNA LTD, priority 2016, published 2019).

Experiments:
HEK293 cells = experiment: Sulforhodamine B relative cell growth assay in HEK293 cells; type: cell-based; conditions: HEK293 (αvβ3+ve); 10 μM proteasome inhibitor without cRGDfK
Protocol: Established methodology was used to prepare 80-100% confluent monolayers of HEK293 cells in T75 flasks. Cells were cultured in DMEM (Lonza) supplemented with 10% FBS (Gibco), 2 mM L-glutamine, 100 U/mL penicillin and 100 μg/mL streptomycin (“complete DMEM”).
The cells in T75 flasks were trypsinised and resuspended in complete DMEM. The cells were counted using a Neubauer chamber and seeded at approximate density of 3×10^4 cells/cm^2 and 7500 cells/cm^2 in 96 well flat bottomed tissue culture plates (Corning) 0.1 mL cell suspension per well. Cells were incubated for 24 hours at 37° C./5% CO2 (humidified). […]
Briefly: medium was removed from wells and replaced with an equal volume of PBS. […] Optical density (OD570nm) was determined using an ELISA plate reader (Dynex MRX, Dynex Technologies).
In total, 5 replicates of the experiment were carried out. Cells treated with peptide/BTZ mixtures or control mixtures were incubated for 24 hours at 37° C./5% CO2 (humidified) then analysed by sulforhodamine B assay.
The average of the background measurements (i.e. no cells, medium only) was subtracted from each reading. ‘Ti’ is OD570nm following 24 hours treatment with drugs. […]
Using these equations, control cell growth is assigned a relative cell growth value of 100% and all cell growth values are calculated relative to this figure. […]

[1] = phase II trials; heavily pretreated patient population; cited from earlier work
Cos7 cells = experiment: Sulforhodamine B relative cell growth assay in Cos7 cells; type: cell-based; conditions: COS-7 (αvβ3−ve); 10 μM proteasome inhibitor without cRGDfK
[2] = system: chymotrypsin-like activity of the proteasome; conditions: highest dose used in the phase I trial; cited from earlier work
chymotrypsin-like sites = chymotrypsin-like sites (Homo sapiens, UniProt P28074); conditions: cited from earlier work
Sequence of chymotrypsin-like sites (P28074 60-263): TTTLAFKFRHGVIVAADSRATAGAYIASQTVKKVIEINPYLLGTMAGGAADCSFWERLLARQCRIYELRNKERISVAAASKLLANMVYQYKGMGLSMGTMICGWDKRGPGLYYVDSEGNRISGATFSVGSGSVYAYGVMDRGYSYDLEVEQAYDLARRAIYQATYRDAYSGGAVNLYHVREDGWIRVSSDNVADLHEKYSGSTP

SMILES	Growth relative to untreated control cells (HEK293 cells)	partial response rate [1] [%]	Growth relative to untreated control cells (Cos7 cells)	inhibition of the chymotrypsin-like activity of the proteasome in blood of patients [2] [%]	inhibition of the chymotrypsin-like sites (chymotrypsin-like sites)
CC(C)C[C@H](NC(=O)[C@H](CCc1ccccc1)NC(=O)CN1CCOCC1)C(=O)N[C@@H](Cc1ccccc1)C(=O)N[C@@H](CC(C)C)C(=O)[C@@]1(C)CO1 [Carfilzomib]	greater activity than ixazomib, delanzomib and oprozomib	24	greater activity than ixazomib, delanzomib and oprozomib	88	–
C[C@@]12OC(=O)[C@]1([C@@H](O)[C@@H]1C=CCCC1)NC(=O)[C@@H]2CCCl [Marizomib]	–	–	–	–	up to 100%
